Source: patent US20150191519A1, “VECTORS ENCODING A PARALYTIC PEPTIDE” (Soricimed Biopharma Inc., priority 2002, published 2015)

Assays:
[1] = tested on: human ovarian carcinoma cell line (OV 2008); assay: calcium ion uptake by FURA-loaded ovarian carcinoma cells (fluorescence); type: cell-based; conditions: for calcium uptake by OV-2008 cell line: FURA fluorescence after calcium chloride 2.5 mM, calcium chloride 5.0 mM, FIG. 16
Method: A human ovarian carcinoma cell line (OV 2008) was grown in MegaCell supplemented (Sigma Aldrich Chemical Co.) with 3% fetal calf serum (v/v), L-glutamine (584 mg/500 mL), and antibiotics penicillin and streptomycin (50 ug/ml) at 37° C. and in a humidified 5% carbon dioxide atmosphere. After confluence, the cells were harvested by incubation with Trypsin EDTA solution low in calcium and magnesium Dulbecco phosphate buffered saline (DPBS) at 37° C. and gentle shaking to detach them from the culture flask surface. After centrifugation and washing in the calcium-depleted medium, cells were incubated with 5 uM FURA 2 AM for 60 minutes to internalize this calcium sensitive fluorophore. After centrifuging and washing twice with DPBS, cells were allowed to de-esterify the FURA 2 AM for 30 minutes at 37° C., activating the calcium-sensitive FURA. Cells were then incubated with aliquots of a solution of pure soricidin. Fluorescent analysis used excitation at 340 nm and emission at a wavelength of 510 nm. After recording the baseline fluorescence of the cells, a bolus of calcium chloride (to final concentration of 2.5 mM) was delivered to the cell suspension and the fluorescence remeasured. After recording the fluorescence, the sample was treated with a bolus of potassium chloride (final concentration 20 mM) to activate any voltage gated calcium channels. Finally, the cells were treated with another bolus of […] raising the calcium ion concentration to 5.0 mM. The control situation was no treatment with soricidin peptide but with identical other treatments.
This transient receptor potential (TRP) calcium channel was blocked by soricidin. FIG. 16 illustrates

insect nerve tissue = assay: calcium ion uptake by excised insect nerve tissue (FURA fluorescence); type: cell-based, flour beetle larvae (meal worms); conditions: FIG. 17
Method: Central nerve pairs running along 5 body segments (including ganglia) were excised from flour beetle larvae (meal worms) and suspended in buffered invertebrate saline containing FURA 2 AM. After 60 minutes, the nerve tissue was removed from this solution, briefly washed in buffered saline and bathed with a solution of pure soricidin for 10 minutes. The nerve tissue was next immersed in a cuvette containing very low calcium ion concentration and a baseline fluorescence value recorded. A bolus of calcium chloride (to a final concentration of 5 mM) was added and, after 5 minutes, the fluorescence was determined. Finally, a bolus of potassium chloride was added to the preparation to a final concentration of 20 mM. The fluorescence was again determined. The control situation was exclusion of the soricidin, substituting instead a sham solution of buffered saline.

[2] = isoelectric pH by capillary isoelectric focusing; type: physicochemical; conditions: migration time 33.9 min; calibrated with pI standard proteins
Method: The isoelectric pH of the shrew peptide soricidin was determined after calibration of the Beckmann-Coulter P/ACE MDQ Capillary Electrophoresis System with proteins of known isoelectric pH (2.75, 5.10, 5.90 and 9.45) and then co-isoelectric focusing of the standards with soricidin. […] The soricidin migration time (33.9 min) provided a pI of 4.20.

## soricidin: 54 amino acid paralytic peptide isolated from shrew (Blarina brevicauda) submaxilary saliva gland, sequence of FIG. 1A (DCSQDCAACSILARPAELNTETCILECEGKLSSNDTEGGLCKEFLHPSKVDLPR; listed as Blarina brevicauda)
[1]; KCl 20 mM
  calcium uptake by OV-2008 cell line: inhibits calcium uptake
[1]; KCl 20 mM, listed as Soricidin
  calcium uptake by OV-2008 cell line: strongly inhibits calcium uptake
[1]; OV-2008
  TRP calcium channel CaT1 (TRPV6) of ovarian carcinoma cells: blocked
[1]; OV-2008, KCl 20 mM
  small increase in calcium uptake in response to potassium ion challenge: eliminated
[1]; OV-2008, increases in amount caused no additional inhibition
  dose dependence of inhibition of calcium uptake: saturated
Insect nerve tissue
  calcium uptake / calcium channels of insect neural tissue: effectively blocks the general and voltage-gated calcium channels
Insect nerve tissue; listed as Soricidin
  calcium uptake / calcium channels of insect neural tissue: inhibits calcium uptake
Insect nerve tissue; nerve bathed in pure soricidin 10 minutes, calcium chloride and KCl 20 mM challenge
  increase in fluorescence (FURA/Calcium complex) less than in control: 92%
[2]
  isoelectric pH (pI): 4.20
